Source: patent US20030176456A1, “Methods for reducing alcohol cravings in chronic alcoholics” (priority 2001, published 2003)

Columns and labels:
[1] = biological target: T1, α3 GABAA receptor (Homo sapiens, UniProt P18507+P34903); experiment: Modulation of GABA induced currents in HEK cells; type: cell-based
T1 construct: expressed in transfected cells; host or cells: HEK cells
Protocol: (§1) In this study, we assessed the functional capacity of βCCt to competitively antagonize the anxiolytic versus the sedative properties of the prototypical BDZ, chlordiazepoxide.
(§2) FIGS. 21-26 represent the molecular biology data in α1-α6 GABAA receptors. […] In other words, βCCt behaves like chlordiazepoxide at the anxiety receptors. It is important to note that these effects occur at 50-100 μM, and would most likely be observed at moderate doses.

[2] = biological target: T2, α2 GABAA receptor (Homo sapiens, UniProt P18507+P47869); experiment: Modulation of GABA induced currents in HEK cells; type: cell-based
T2 construct: expressed in transfected cells; host or cells: HEK cells
T2 sequence (P47869 29-451): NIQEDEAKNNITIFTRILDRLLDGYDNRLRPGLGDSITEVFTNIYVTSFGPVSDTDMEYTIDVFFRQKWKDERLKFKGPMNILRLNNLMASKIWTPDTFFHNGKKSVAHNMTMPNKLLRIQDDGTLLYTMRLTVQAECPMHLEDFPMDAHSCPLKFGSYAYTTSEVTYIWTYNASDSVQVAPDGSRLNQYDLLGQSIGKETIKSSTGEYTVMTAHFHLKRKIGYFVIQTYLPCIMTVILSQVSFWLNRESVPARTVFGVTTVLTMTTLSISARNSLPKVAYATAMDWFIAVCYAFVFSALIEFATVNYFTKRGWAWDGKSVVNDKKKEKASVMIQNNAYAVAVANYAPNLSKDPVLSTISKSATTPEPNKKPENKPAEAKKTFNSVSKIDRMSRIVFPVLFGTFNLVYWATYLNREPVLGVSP
T2 sequence (P28472 26-473 partner): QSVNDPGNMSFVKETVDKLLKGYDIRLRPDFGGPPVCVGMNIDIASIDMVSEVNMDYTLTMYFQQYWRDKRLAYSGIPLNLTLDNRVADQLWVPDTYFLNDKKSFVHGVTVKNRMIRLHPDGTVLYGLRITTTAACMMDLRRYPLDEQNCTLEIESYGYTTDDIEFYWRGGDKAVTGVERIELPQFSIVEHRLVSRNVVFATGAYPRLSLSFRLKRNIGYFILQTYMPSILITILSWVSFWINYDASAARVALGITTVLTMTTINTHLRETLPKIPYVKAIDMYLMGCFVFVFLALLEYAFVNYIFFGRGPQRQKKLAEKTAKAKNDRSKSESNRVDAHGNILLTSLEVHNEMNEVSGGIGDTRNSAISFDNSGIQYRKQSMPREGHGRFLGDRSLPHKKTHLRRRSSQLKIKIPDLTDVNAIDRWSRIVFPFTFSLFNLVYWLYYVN
T2 sequence (P18507 40-475): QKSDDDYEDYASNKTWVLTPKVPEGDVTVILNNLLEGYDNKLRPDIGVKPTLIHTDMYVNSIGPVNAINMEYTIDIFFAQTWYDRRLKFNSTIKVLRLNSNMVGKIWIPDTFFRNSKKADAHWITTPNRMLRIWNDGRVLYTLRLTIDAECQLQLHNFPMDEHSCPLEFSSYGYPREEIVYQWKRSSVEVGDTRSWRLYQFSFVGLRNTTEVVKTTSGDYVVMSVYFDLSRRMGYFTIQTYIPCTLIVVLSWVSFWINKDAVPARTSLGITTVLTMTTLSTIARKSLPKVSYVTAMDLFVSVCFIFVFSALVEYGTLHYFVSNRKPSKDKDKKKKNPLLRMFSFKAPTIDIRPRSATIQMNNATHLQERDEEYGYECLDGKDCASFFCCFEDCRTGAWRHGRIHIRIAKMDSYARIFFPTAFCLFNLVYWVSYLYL
Protocol: as §1, §2

[3] = biological target: T3, α1 GABAA receptor (Homo sapiens, UniProt P14867+P18507); experiment: Modulation of GABA induced currents in HEK cells; type: cell-based; conditions: 0.1 to 100 μM
T3 construct: expressed in transfected cells; host or cells: HEK cells
T3 sequence (P14867 28-456): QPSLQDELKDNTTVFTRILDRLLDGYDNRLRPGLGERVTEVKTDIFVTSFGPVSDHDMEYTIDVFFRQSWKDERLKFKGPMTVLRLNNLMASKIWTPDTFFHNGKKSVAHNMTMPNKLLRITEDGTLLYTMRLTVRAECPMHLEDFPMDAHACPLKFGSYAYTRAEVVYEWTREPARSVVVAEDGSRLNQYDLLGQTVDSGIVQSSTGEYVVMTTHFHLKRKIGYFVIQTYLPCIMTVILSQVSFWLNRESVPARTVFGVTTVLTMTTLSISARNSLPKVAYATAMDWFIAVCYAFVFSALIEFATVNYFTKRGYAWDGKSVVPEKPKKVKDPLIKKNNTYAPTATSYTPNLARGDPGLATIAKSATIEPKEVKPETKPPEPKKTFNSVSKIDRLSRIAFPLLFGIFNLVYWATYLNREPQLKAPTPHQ
T3 sequence (P28472 26-473 partner): as the sequence (P28472 26-473 partner) above
T3 sequence (P18507 40-475): as the sequence (P18507 40-475) above
Protocol: as §1, §2

[4] = biological target: T4, α6 GABAA receptor (Homo sapiens, UniProt P18507+Q16445); experiment: Modulation of GABA induced currents in HEK cells; type: cell-based; conditions: 0.1 to 100 μM
T4 construct: expressed in transfected cells; host or cells: HEK cells
T4 sequence (Q16445 20-453): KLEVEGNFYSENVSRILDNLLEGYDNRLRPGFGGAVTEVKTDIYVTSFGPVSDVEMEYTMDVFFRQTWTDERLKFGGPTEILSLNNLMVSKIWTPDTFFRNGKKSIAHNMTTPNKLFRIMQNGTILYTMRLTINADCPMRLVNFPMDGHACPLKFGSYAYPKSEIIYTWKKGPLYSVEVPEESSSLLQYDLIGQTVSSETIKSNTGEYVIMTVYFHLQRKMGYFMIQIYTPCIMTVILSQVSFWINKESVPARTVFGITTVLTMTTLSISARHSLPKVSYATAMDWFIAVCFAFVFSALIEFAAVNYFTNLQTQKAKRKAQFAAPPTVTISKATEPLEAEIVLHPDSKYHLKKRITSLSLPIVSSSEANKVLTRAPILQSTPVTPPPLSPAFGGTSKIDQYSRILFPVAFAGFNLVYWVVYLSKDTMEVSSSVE
T4 sequence (P28472 26-473 partner): as the sequence (P28472 26-473 partner) above
T4 sequence (P18507 40-475): as the sequence (P18507 40-475) above
Protocol: as §1, §2

[5] = biological target: T5, α1β3γ2 GABAA receptor (Homo sapiens, UniProt P14867+P18507); conditions: recombinant receptors (Cox et al., 1995); cited from earlier work
T5 construct: expressed in transfected cells
T5 sequence (P14867 28-456): as the sequence (P14867 28-456) above
T5 sequence (P28472 26-473 partner): as the sequence (P28472 26-473 partner) above
T5 sequence (P18507 40-475): as the sequence (P18507 40-475) above

[6] = tested on: HAD-1 rats; type: in vivo, rat
Protocol: (§3) Rats were placed in the middle of the automated plus maze (Acuscan Electronics, Columbus, Ohio, USA) with two walled and open arms under dim illumination (for details see June et al., 1998b).
(§4) βCCt (5-60 mg/kg i.p.) and chlordiazepoxide (2.5, 5, 10 mg/kg i.p.) were administered 15 and 30 min, respectively, prior to being placed in the plus maze or open field. EtOH (1.25 g/kg) was given 5 min prior to placing the rats in the open field. When βCCt was given in combination with either chlordiazepoxide or EtOH, it was given 10 min prior to chlordiazepoxide and EtOH. As noted above, βCCt was administered in Tween-20 solution, while all other drugs were mixed in sterile saline. Animals were tested between 9am-3 pm.
(§5) HAD-1 asnd P rats were randomly assigned to each of the […] drug treatment groups (Veh, 5, 15, 30, 60 mg/kg). A between group ANOVA with drug treatment as the independent factor was conducted for HAD-1 (n=8-12 per treatment group) [total N=42] and P (n=7-12 per treatment group) [total N=42] rats on the plus-maze test.

[7] = tested on: P rats; type: in vivo, rat
Protocol: as §3, §4, §5

[8] = tested on: squirrel monkeys; conditions: Rowlett et al., unpublished observation; cited from earlier work
[9] = Rowlett et al., submitted; cited from earlier work
[10] = biological target: wild type BDZ receptors (cerebral cortical membranes); experiment: Radioligand displacement at cerebral cortical membranes; type: binding; conditions: read-out: Displacement of [3H] flunitrazepam in vitro, IC50; rat cerebral cortical membranes; mean of three or more experiments
Protocol: [^3H] […] In brief, rats were sacrificed by decapitation, and the cerebral cortex removed. […] Tissue was resuspended in an equal volume of buffer and recentrifuged. This procedure was repeated a total of three times and the tissue resuspended in 50 volumes of buffer. Incubations (1 mL) consisted of tissue (0.3 mL), drug solution (0.1 mL), buffer (0.5 mL) and radioligand (0.1 mL). […] The IC50 values were estimated using Hill plots.

[11] = tested on: GABAA α4β3γ2 receptors; experiment: Xenopus oocyte expression assay, modulation of GABA current; type: cell-based, rat

T1 sequence (P34903 29-492): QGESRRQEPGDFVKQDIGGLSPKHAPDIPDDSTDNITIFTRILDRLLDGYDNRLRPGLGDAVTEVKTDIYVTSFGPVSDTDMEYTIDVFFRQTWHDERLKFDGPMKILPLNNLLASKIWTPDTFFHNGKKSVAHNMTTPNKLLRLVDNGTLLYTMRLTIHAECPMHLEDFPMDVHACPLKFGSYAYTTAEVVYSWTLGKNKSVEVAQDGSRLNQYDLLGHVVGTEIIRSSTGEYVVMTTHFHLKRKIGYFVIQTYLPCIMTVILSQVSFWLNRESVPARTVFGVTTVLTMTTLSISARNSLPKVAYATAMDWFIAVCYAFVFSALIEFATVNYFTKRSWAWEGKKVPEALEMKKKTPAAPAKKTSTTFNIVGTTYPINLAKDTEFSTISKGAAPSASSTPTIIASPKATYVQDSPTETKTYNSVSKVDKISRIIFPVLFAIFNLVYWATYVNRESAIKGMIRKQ
T1 sequence (P28472 26-473 partner): as the sequence (P28472 26-473 partner) above
T1 sequence (P18507 40-475): as the sequence (P18507 40-475) above

Row | SMILES | activity at the α3 receptor in HEK cells ([1]; 0.1 to 100 μM) | concentration at which agonist-like effects occur, α3 ([1]; HEK cells) | activity at the α2 receptor in HEK cells ([2]; 0.1 to 100 μM) | intrinsic activity in HEK cells, α2 ([2]; 0.1 to 100 μM) | concentration at which agonist-like effects occur, α2 ([2]; HEK cells) | activity at the α1 receptor in HEK cells [3] | intrinsic activity in HEK cells, α1 [3] | activity at the α6 receptor in HEK cells [4] | intrinsic activity in HEK cells, α6 [4] | selectivity for A1 over the A5 subtype [5] | selectivity for GABAA1 over the A2 and A3 receptors [5] | sedation in the plus maze ([6]; 60 mg/kg i.p., data not shown) | effect on anxiolytic activity produced by chlordiazepoxide (5.0 mg/kg) ([6]; 5, 15 mg/kg i.p.) | number of closed arm entries ([6]; i.p.) | effect on anxiolytic activity produced by chlordiazepoxide (5.0 mg/kg) ([7]; 5, 15 mg/kg i.p.) | number of closed arm entries ([7]; i.p. 5-60 mg/kg) | activity in observational studies vs saline controls [8] | antagonism in zolpidem discrimination [9] | IC50 [10] | % of GABA response, α4 [11]
1 | CC(C)(C)OC(=O)c1cc2c(cn1)[nH]c1ccccc12 [βCCt, β-carboline-3-carboxylate t-butyl ester] | Strong agonist activity | 50 to 100 µM | Strong agonist activity | Intrinsic activity is seen | 50 to 100 µM | Agonist and inverse-agonist activity | Intrinsic activity is seen | Minimal agonist activity | Intrinsic activity is seen | > 110 fold | > 10 fold | marked sedative profile | neither dose of βCCt (5, 15 mg/kg, i.p.) altered the anxiolytic activity | without effect | neither dose of βCCt (5, 15 mg/kg, i.p.) altered the anxiolytic activity | significant reduction in performance only with the 60 mg/kg dose |  |  |  | 
2 | CCCOc1cc2c(cn1)[nH]c1ccccc12.Cl [3-PBC, 3-Propoxy-β-carboline hydrochloride] |  |  |  |  |  |  |  |  |  |  |  |  |  |  |  |  | inactive | surmountable antagonism | 11 nM | 129±3%
